{
  "source": "patent US11667630B2",
  "about": "“Nitrogen-containing 6-membered cyclic compound” (Asahi Kasei Pharma Corporation, priority 2017, dated 2023)",
  "key": {"human EP2 receptor": {"target": "T1, human EP2 receptor (Homo sapiens, UniProt P43116)", "T1 construct": "purchased Merck Millipore HTS185M", "T1 sequence (P43116 whole entry)": "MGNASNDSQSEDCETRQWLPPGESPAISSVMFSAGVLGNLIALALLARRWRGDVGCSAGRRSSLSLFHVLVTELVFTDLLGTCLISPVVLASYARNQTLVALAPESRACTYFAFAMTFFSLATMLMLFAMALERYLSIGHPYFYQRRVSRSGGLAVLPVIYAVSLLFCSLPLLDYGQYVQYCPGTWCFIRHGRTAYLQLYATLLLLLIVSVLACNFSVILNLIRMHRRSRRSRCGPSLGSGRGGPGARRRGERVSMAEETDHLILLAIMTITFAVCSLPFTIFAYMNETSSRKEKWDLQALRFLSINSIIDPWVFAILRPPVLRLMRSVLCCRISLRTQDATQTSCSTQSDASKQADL", "test": "Receptor binding test, [3H]PGE2 binding inhibition, EP2", "conditions": "[3H]PGE2 2.56 nmol/L, membrane fraction HTS185M, 25°C 60 minutes", "procedure": "In order to evaluate selectivity to each EP receptor subtype, [^3H]PGE2 binding-inhibition activities of test compounds for cell membranes on which human EP2, human EP3, and human EP4 receptors were stably expressed were measured.\nAs the membrane fractions of the prostaglandin E receptors EP2, EP3, and EP4, 10.0 μg protein/tube each of HTS185M, HTS092M, and HTS142M of Merck Millipore were used, respectively. Each membrane fraction was incubated with a reaction mixture (250 μL/tube) containing a test compound and [3H]PGE2 at 25° C. for 60 minutes. […] After the reaction, the membrane fraction was collected on filter paper by using a cell harvester, the filter paper was transferred to a measurement vial, and the measurement was performed on a liquid scintillation counter.\nThe nonspecific binding was determined as binding observed in the presence of excess amount (10 μM) of unlabeled PGE2. The measurement of the [3H]PGE2 binding-inhibiting activity of a test compound was performed by adding the test compound at various concentrations. The following buffers were used for the reaction.\nBuffer for EP2: 50 mmol/L HEPES-NaOH (pH 7.4) containing 5 mmol/L MgCl2, 1 mmol/L CaCl2), and 0.2% BSA"}, "dog femur": {"tested_on": "dog femur", "test": "Neo-osteogenesis action in dog femur", "type": "in vivo", "conditions": "beagle dogs, four weeks", "procedure": "In order to investigate an osteogenesis-promoting action of the compounds of the present invention, for influence of administration of microspheres containing a test compound in the vicinity of the femur of dog, osteogenesis-promoting action was evaluated by measuring new bone formed after the administration.\nNine to eleven months old female beagle dogs ([…] LABES) were anesthetized by administration of a 1:1 mixture of ketamine hydrochloride (Ketalar 500 mg, Daiichi Sankyo Propharma Co., Ltd.) and xylazine (Selactar 2% Injection, Bayer Yakuhin, Ltd.) at a dose of about 0.5 mL/kg, and isoflurane listed in Japanese Pharmacopoeia (Elucaine, Mylan Pharmaceutical) was used for maintenance anesthesia, which was administered with an inhaler IMPAC6 (VetEquip Inc.). After hair of the femoral region of the right hind leg was shaved, and disinfection treatment was performed, 350 μL of a microsphere suspension obtained by suspending microspheres (prepared according to the method of Preparation Example 1 or 2) containing a test compound (compound of Example 23) in a CMC solution was transdermally administered around the periosteum of the femoral diaphysis by using a 1-mL injection syringe and a 21G injection needle. The doses of the test compound were 0.01, 0.1, 1.0, 10, and 100 μg/site, and the aforementioned microspheres were used in an amount corresponding to each dose. As a control group, a drug liquid obtained by suspending the microspheres not containing the test compound in 350 μL of the CMC solution alone was administered. Four weeks after the administration of the drug liquid, the animals were euthanized by bleeding under pentobarbital sodium (Somnopentyl) anesthesia. The femurs of both sides were extracted, immersed in a 10% neutral buffered formalin solution, and stored. The bone mineral content of the femur was measured by using Discovery X-ray bone density analyzer (produced by Toyo Medic). The test was performed with the groups each consisting of 4 dogs"}, "human EP4 receptor": {"target": "human EP4 receptor (Homo sapiens, UniProt P35408)", "sequence (P35408 whole entry)": "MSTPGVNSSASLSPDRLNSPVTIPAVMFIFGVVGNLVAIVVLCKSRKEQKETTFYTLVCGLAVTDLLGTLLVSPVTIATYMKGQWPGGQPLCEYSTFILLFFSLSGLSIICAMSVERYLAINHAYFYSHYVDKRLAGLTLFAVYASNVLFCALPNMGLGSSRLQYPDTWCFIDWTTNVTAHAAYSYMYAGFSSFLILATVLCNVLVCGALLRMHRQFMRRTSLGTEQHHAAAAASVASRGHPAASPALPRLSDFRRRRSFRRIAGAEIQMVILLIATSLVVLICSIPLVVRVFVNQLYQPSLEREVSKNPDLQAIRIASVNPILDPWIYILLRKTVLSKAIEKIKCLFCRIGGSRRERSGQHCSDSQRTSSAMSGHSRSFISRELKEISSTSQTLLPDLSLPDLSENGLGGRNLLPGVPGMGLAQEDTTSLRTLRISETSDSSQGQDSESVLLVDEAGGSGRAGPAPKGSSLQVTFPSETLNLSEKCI", "test": "Measurement of EP4 agonist activity (cAMP production)", "type": "cell-based", "parameters": "expressed in transfected cells; host or cells: HEK293", "conditions": "cAMP production in HEK293 cells stably expressing human EP4 receptor; average values where measured two or more times", "procedure": "In order to investigate EP4 receptor agonist activity of the compounds of the present invention, production of cAMP was measured in HEK293 cells that were made to stably express the human EP4 receptor.\nBy using Refseq Database, prostaglandin E receptor was searched for. As a result, gene information of human EP4 (NM_000958) receptor was obtained. On the basis of this sequence information, the human EP4 receptor gene was cloned by PCR in a conventional manner using human cDNA as the template, and HEK293 cells that were made to stably express the human EP4 receptor were established. When cryopreserved cells of this strain were thawed and used, cells subcultured three times or more within a certain period of time (about 1 to 2 weeks) by using Dulbecco's Modified Eagle's Medium (Dulbecco's Modified Eagle's Medium may be henceforth abbreviated as DMEM) containing 10% FBS, 50 units each of penicillin and streptomycin were used. The subcultured cells were inoculated in wells of a poly-D-lysine-coated 96-well plate at a density of 2×10^4 to 2.5×10^4 cells/well, and cultured for one day. The medium in the wells was removed by suction, then DMEM (80 μL) was added to each well, and incubation was performed at 37° C. for 15 minutes. […] The reaction was allowed at 37° C. for 30 minutes, then the medium was removed by suction, Assay/Lysis Buffer (100 μL) contained in cAMP Screen Kit (produced by Applied Biosystems) was added to terminate the reaction. Then, the reaction mixture was incubated at 37° C. for 30 minutes to prepare a sample for quantification of cAMP, and the amount of cAMP in the sample was quantified according to the method indicated in cAMP Screen Kit. By non-linear regression of the compound concentration and the amount of cAMP, the concentration of the compound required for increasing cAMP to 50% of the maximum increase (EC50 value) was calculated by using the Kaleida Graph."}},
  "data": [
    {"molecule": "O=C(O)c1ccc(CCN2C(=O)SCCN2CC[C@@H](O)Cc2cccc(C#Cc3ccsc3)c2)s1", "note": "[Example 23, (S)-5-(2-(4-(3-Hydroxy-4-(3-(thiophen-3-ylethynyl)phenyl)butyl)-2-oxo-1,3,4-thiadiazinan-3-yl)ethyl)thiophene-2-carboxylic acid]", "values": [
      {"measurement": "IC50", "setting": "human EP2 receptor", "result": "> 1000", "unit": "nM"},
      {"measurement": "Bone mineral content of femur 1/3 center region (g) Left femur (no administration of compound)", "setting": "dog femur; microspheres containing compound of Example 23, 0.01 μg/site at right femur", "result": "2.9 ± 0.4", "unit": "g"},
      {"measurement": "Bone mineral content of femur 1/3 center region (g) Right femur (administered with compound)", "setting": "dog femur; microspheres containing compound of Example 23, 0.01 μg/site", "result": "2.9 ± 0.4", "unit": "g"},
      {"measurement": "Bone mineral content of femur 1/3 center region (g) Left femur (no administration of compound)", "setting": "dog femur; microspheres containing compound of Example 23, 0.1 μg/site at right femur", "result": "2.6 ± 0.1", "unit": "g"},
      {"measurement": "Bone mineral content of femur 1/3 center region (g) Right femur (administered with compound)", "setting": "dog femur; microspheres containing compound of Example 23, 0.1 μg/site", "result": "2.7 ± 0.2", "unit": "g"},
      {"measurement": "Bone mineral content of femur 1/3 center region (g) Left femur (no administration of compound)", "setting": "dog femur; microspheres containing compound of Example 23, 1.0 μg/site at right femur", "result": "3.0 ± 0.1", "unit": "g"},
      {"measurement": "Bone mineral content of femur 1/3 center region (g) Right femur (administered with compound)", "setting": "dog femur; microspheres containing compound of Example 23, 1.0 μg/site", "result": "4.1 ± 0.4", "unit": "g"},
      {"measurement": "Bone mineral content of femur 1/3 center region (g) Left femur (no administration of compound)", "setting": "dog femur; microspheres containing compound of Example 23, 10 μg/site at right femur", "result": "2.8 ± 0.3", "unit": "g"},
      {"measurement": "Bone mineral content of femur 1/3 center region (g) Right femur (administered with compound)", "setting": "dog femur; microspheres containing compound of Example 23, 10 μg/site", "result": "6.4 ± 0.7", "unit": "g"},
      {"measurement": "Bone mineral content of femur 1/3 center region (g) Left femur (no administration of compound)", "setting": "dog femur; microspheres containing compound of Example 23, 100 μg/site at right femur", "result": "2.7 ± 0.4", "unit": "g"},
      {"measurement": "Bone mineral content of femur 1/3 center region (g) Right femur (administered with compound)", "setting": "dog femur; microspheres containing compound of Example 23, 100 μg/site", "result": "8.2 ± 1.1", "unit": "g"},
      {"measurement": "EC50", "setting": "human EP4 receptor", "result": 0.033, "unit": "nM"}
    ]}
  ]
}
